# Measurements from ChEMBL document CHEMBL5291721, “A preclinical secondary pharmacology resource illuminates target-adverse drug reaction associations of marketed drugs” (Nat Commun, 2023).
# Legend:
# [1] = target: T1, Adenosine receptor A3 (Homo sapiens, UniProt P0DMS8)
# T1 sequence (P0DMS8 whole entry): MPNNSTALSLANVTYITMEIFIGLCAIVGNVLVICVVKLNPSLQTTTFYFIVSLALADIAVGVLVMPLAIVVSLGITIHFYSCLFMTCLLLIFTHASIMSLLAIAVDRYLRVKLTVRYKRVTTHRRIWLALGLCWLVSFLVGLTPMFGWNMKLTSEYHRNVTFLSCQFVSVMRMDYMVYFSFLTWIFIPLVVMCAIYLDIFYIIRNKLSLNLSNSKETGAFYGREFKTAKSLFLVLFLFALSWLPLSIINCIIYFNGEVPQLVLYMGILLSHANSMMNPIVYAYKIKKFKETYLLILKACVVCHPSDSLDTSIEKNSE
# [2] = target: T2, Adenosine receptor A1 (Homo sapiens, UniProt P30542)
# T2 sequence (P30542 whole entry): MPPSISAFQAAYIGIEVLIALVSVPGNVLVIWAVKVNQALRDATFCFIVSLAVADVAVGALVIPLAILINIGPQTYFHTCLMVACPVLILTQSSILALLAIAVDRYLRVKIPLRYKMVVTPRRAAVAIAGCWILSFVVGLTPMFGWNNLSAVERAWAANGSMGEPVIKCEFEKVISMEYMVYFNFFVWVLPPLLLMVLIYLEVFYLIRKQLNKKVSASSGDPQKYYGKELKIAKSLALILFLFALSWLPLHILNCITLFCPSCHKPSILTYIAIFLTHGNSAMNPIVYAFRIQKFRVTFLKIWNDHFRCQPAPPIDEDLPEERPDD
# [3] = target: Adenosine receptor A2a (Homo sapiens, UniProt P29274)
# [4] = target: T3, Alpha-2A adrenergic receptor (Homo sapiens, UniProt P08913); format: functional, cell-based
# T3 sequence (P08913 whole entry): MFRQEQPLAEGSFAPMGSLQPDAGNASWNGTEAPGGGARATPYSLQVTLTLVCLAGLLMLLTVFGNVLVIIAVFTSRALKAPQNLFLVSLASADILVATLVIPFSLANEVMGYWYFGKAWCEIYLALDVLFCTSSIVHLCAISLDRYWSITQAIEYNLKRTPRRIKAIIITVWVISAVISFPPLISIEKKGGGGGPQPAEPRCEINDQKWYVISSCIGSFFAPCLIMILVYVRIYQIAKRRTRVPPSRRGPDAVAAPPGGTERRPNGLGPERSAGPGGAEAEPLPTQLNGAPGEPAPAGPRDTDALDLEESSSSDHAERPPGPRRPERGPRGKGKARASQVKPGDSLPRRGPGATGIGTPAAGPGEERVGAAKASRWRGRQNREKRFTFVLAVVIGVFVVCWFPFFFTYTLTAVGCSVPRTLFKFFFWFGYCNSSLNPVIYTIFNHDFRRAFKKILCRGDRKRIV
# [5] = target: T4, B2 bradykinin receptor (Homo sapiens, UniProt P30411)
# T4 sequence (P30411 whole entry): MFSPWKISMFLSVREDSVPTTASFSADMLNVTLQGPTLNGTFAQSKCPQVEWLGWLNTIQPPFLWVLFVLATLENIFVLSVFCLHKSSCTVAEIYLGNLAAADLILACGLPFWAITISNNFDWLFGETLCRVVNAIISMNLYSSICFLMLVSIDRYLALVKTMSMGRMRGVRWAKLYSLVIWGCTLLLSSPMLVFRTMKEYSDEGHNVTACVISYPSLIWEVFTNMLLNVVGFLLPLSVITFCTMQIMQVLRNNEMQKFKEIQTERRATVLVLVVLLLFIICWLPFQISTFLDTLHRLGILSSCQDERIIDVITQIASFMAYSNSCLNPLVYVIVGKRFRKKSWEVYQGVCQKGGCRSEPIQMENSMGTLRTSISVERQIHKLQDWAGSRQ
# [6] = target: T5, Muscarinic acetylcholine receptor M2 (Homo sapiens, UniProt P08172); format: functional, cell-based
# T5 sequence (P08172 whole entry): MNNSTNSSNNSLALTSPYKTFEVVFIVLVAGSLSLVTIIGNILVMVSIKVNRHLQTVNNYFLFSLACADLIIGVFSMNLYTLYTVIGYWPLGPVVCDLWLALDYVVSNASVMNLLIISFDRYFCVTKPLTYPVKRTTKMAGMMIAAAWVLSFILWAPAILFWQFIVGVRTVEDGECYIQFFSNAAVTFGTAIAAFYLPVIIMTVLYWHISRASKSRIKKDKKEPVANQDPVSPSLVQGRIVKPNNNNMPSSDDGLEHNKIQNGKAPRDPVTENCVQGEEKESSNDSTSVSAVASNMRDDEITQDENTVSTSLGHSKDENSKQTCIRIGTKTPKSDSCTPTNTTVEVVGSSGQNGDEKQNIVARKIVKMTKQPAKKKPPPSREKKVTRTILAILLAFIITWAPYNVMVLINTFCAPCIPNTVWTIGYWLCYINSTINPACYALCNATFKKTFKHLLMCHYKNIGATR
# [7] = target: T6, Neuropeptide Y receptor type 1 (Homo sapiens, UniProt P25929); settings: read-out: AC50
# T6 sequence (P25929 whole entry): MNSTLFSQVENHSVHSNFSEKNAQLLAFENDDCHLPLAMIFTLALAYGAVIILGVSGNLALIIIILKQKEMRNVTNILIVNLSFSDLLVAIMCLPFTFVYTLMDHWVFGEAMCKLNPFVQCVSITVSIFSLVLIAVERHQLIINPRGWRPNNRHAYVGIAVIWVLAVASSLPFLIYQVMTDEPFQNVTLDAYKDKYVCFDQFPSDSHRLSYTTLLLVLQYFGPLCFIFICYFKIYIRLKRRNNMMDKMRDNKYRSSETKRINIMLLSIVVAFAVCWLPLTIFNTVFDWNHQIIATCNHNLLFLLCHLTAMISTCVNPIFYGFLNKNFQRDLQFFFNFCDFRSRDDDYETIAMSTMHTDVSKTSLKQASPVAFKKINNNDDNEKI
# [8] = target: T7, Thromboxane A2 receptor (Homo sapiens, UniProt P21731)
# T7 sequence (P21731 whole entry): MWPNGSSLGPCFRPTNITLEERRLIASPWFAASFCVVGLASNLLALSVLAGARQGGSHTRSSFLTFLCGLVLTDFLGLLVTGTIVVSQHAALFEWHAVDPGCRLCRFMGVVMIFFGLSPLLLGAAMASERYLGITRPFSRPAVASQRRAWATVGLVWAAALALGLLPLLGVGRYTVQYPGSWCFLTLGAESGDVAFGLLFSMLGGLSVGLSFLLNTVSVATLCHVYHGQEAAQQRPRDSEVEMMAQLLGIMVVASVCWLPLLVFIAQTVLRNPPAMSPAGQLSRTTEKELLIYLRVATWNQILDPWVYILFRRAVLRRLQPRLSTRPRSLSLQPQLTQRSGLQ
# [9] = target: D(3) dopamine receptor (Homo sapiens, UniProt P35462)
# Note: assay procedure not described here.
# Adenosine receptor A2a, sequence (P29274 whole entry): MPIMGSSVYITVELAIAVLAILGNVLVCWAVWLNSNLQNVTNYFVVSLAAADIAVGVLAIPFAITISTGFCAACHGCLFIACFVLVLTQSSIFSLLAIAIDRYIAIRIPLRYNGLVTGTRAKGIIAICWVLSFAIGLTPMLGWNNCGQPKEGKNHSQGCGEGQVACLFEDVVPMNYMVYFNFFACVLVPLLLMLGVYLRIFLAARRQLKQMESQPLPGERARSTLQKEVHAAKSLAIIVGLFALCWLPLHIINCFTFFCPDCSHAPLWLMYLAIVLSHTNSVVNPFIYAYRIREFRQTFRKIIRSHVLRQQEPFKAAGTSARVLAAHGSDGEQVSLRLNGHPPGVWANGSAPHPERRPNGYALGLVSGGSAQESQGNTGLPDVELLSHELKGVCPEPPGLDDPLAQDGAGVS
# D(3) dopamine receptor, sequence (P35462 whole entry): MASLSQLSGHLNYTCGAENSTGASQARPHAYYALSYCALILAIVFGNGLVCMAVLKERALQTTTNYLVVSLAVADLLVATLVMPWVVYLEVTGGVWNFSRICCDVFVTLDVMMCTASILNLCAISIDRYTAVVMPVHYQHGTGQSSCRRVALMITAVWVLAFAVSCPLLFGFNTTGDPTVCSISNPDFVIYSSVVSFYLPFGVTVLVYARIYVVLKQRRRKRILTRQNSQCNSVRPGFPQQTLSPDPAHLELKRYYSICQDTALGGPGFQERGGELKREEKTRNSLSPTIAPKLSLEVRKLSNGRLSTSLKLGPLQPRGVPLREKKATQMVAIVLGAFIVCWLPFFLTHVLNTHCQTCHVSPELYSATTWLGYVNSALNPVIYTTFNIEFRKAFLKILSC
Compound,AC50 [1],other results
O=C1/C(=C2\Nc3ccc(S(=O)(=O)O)cc3C2=O)Nc2ccc(S(=O)(=O)O)cc21 [INDIGOTINDISULFONATE],0.995 µM,–
CC[C@H](c1ccc(O)cc1)[C@@H](CC)c1ccc(O)cc1 [HEXESTROL],8.47 µM,–
C/C=C/C/C=C/CCC(=O)[C@H]1O[C@H]1C(N)=O [CERULENIN],> 30 µM,–
Nc1ccc(C(=O)Oc2ccccc2)c(O)c1 [PHENYL AMINOSALICYLATE],18.4 µM,–
COc1c2ccoc2cc2oc(=O)ccc12 [BERGAPTEN],23.8 µM,–
Cc1onc(-c2ccccc2)c1-c1ccc(S(N)(=O)=O)cc1 [VALDECOXIB],23.8 µM,AC50 [2]: 27.7 µM; AC50 [3]: > 30 µM; AC50 [4]: > 10 µM; AC50 [5]: > 30 µM; AC50 [6]: > 10 µM; AC50 [7]: > 30 µM; AC50 [8]: > 30 µM; AC50 [9]: > 30 µM
N[C@@H](CO)C(=O)O [SERINE],> 30 µM,–
CN1CCCCC1CCN1c2ccccc2Sc2ccc([S+](C)[O-])cc21 (configuration not stated) [MESORIDAZINE],> 30 µM,–
Cc1onc(-c2ccccc2)c1C(=O)N[C@@H]1C(=O)N2[C@@H]1SC(C)(C)[C@@H]2C(=O)O [OXACILLIN],> 30 µM,–
COc1cc2nccc(Oc3ccc(NC(=O)C4(C(=O)Nc5ccc(F)cc5)CC4)cc3)c2cc1OC [CABOZANTINIB],0.379 µM,AC50 [2]: > 30 µM; AC50 [3]: > 30 µM; AC50 [4]: 19 µM; AC50 [6]: > 30 µM; AC50 [9]: > 30 µM
CC(CN1CC(=O)NC(=O)C1)N1CC(=O)NC(=O)C1 (configuration not stated) [RAZOXANE],> 30 µM,–
C[N+](C)(C)C[C@H](O)CC(=O)[O-] [LEVOCARNITINE],> 30 µM,–
CC(C)(O)CNc1nc(Nc2ccnc(C(F)(F)F)c2)nc(-c2cccc(C(F)(F)F)n2)n1 [ENASIDENIB],0.003 µM,–
CC(C)OC(=O)CCC/C=C\C[C@@H]1[C@@H](/C=C/C(F)(F)COc2ccccc2)[C@H](O)C[C@@H]1O [TAFLUPROST],> 30 µM,–
CC(CCc1ccccc1)NCC(O)c1ccc(O)c(C(N)=O)c1 (configuration not stated) [LABETALOL],> 30 µM,–
CNC(=O)Oc1cccc2ccccc12 [CARBARIL],> 30 µM,–
CCOC(=O)C1=C[C@@H](OC(CC)CC)[C@H](NC(C)=O)[C@@H](N)C1 [OSELTAMIVIR],> 30 µM,–
OC[C@H]1O[C@@H](c2ccc(Cl)c(Cc3ccc(O[C@H]4CCOC4)cc3)c2)[C@H](O)[C@@H](O)[C@@H]1O [EMPAGLIFLOZIN],> 30 µM,–
CC(C)Cc1ccc(C(C)C(=O)O)cc1 (configuration not stated) [IBUPROFEN],> 30 µM,AC50 [2]: > 30 µM; AC50 [3]: > 30 µM; AC50 [4]: > 10 µM; AC50 [5]: > 30 µM; AC50 [6]: > 10 µM; AC50 [7]: > 30 µM; AC50 [8]: > 30 µM; AC50 [9]: > 30 µM
Cc1ccccc1C(=O)Nc1ccc(C(=O)N2CCCC(N(C)C)c3ccccc32)cc1 (configuration not stated) [MOZAVAPTAN],> 30 µM,–
CC[C@H]1OC(=O)[C@H](C)C(=O)[C@H](C)[C@@H](O[C@@H]2O[C@H](C)C[C@H](N(C)C)[C@H]2O)[C@](C)(OC)C[C@@H](C)C(=O)[C@H](C)[C@H]2N(CCCCn3cnc(-c4cccnc4)c3)C(=O)O[C@]12C [TELITHROMYCIN],> 30 µM,–
CN(C)[C@@H]1C(O)=C(C(N)=O)C(=O)[C@@]2(O)C(O)=C3C(=O)c4c(O)ccc(Cl)c4[C@@](C)(O)[C@H]3C[C@@H]12 [CHLORTETRACYCLINE],> 30 µM,–
C=CCN1CC[C@]23CCCC[C@H]2[C@H]1Cc1ccc(O)cc13 [LEVALLORPHAN],> 30 µM,–
C[C@@H]1C[C@H]2[C@@H]3CCC4=CC(=O)C=C[C@]4(C)[C@@]3(Cl)[C@@H](O)C[C@]2(C)[C@@]1(OC(=O)c1ccco1)C(=O)CCl [MOMETASONE FUROATE],1.64 µM,–
CC1=C(/C=C/C(C)=C/C=C/C(C)=C/C(=O)O)C(C)(C)CCC1 [TRETINOIN],8.21 µM,–
CC[C@H](C)C[C@H](C)CCCCCCCCC(=O)N[C@H]1C[C@@H](O)[C@@H](NCCN)NC(=O)[C@@H]2[C@@H](O)CCN2C(=O)[C@H]([C@H](O)CCN)NC(=O)[C@H]([C@H](O)[C@@H](O)c2ccc(O)cc2)NC(=O)[C@@H]2C[C@@H](O)CN2C(=O)[C@H]([C@@H](C)O)NC1=O [CASPOFUNGIN],11.3 µM,–
